# According to PubChem BioAssay AID1963983 (Molecular Pharmacology Branch, DTP, NCI, 2024):
# System: 186277-243-T-J2-PDC multi-cell spheroid viability
# Assay: Anticancer human tumor 186277-243-T-J2-PDC patient-derived colon adenocarcinoma cell line growth inhibition [PI3K]
# Conditions: for IC50: curve of first compound; for viability, T/C: stronger effect = lower value
# Outline: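 Viability of mixed-cell spheroids was determined after exposure to pairwise combinations, one partner being inavolisib, alpelisib, duvelisib or copanlisib. Highest tested concentration matched clinical Cmax where known and 10 microM where not, descending in half-log steps.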
# 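Also: spheroids exposed to compounds for seven days before viability reading.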
# 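For viability, T/C in this document: 100% = DMSO vehicle control viability.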
structure (smiles),measurement,setting,value
CC(C)n1nc(-c2ccc3oc(N)nc3c2)c2c(N)ncnc21 + CC(Nc1ccc2c(c1)OCCn1cc(N3C(=O)OCC3C(F)F)nc1-2)C(N)=O,IC50,second compound 0.00316 µM,0.0529 µM
same,IC50,second compound 0.01 µM,0.0552 µM
same,IC50,second compound 0.0316 µM,0.0475 µM
same,IC50,second compound 0.1 µM,0.0304 µM
same,IC50,second compound 0.316 µM,0.00851 µM
same,IC50,second compound 1 µM,< 0.000316 µM
same,"viability, T/C","second compound 0.00316 µM, first compound 0.000316 µM",90%
same,"viability, T/C","second compound 0.00316 µM, first compound 0.001 µM",101%
same,"viability, T/C","second compound 0.00316 µM, first compound 0.00316 µM",104%
same,"viability, T/C","second compound 0.00316 µM, first compound 0.01 µM",93.7%
same,"viability, T/C","second compound 0.00316 µM, first compound 0.0316 µM",75.1%
same,"viability, T/C","second compound 0.00316 µM, first compound 0.1 µM",19.1%
same,"viability, T/C","second compound 0.01 µM, first compound 0.000316 µM",116%
same,"viability, T/C","second compound 0.01 µM, first compound 0.001 µM",87.5%
same,"viability, T/C","second compound 0.01 µM, first compound 0.00316 µM",113%
same,"viability, T/C","second compound 0.01 µM, first compound 0.01 µM",93.1%
same,"viability, T/C","second compound 0.01 µM, first compound 0.0316 µM",73.5%
same,"viability, T/C","second compound 0.01 µM, first compound 0.1 µM",25.3%
same,"viability, T/C","second compound 0.0316 µM, first compound 0.000316 µM",107%
same,"viability, T/C","second compound 0.0316 µM, first compound 0.001 µM",116%
same,"viability, T/C","second compound 0.0316 µM, first compound 0.00316 µM",97.9%
same,"viability, T/C","second compound 0.0316 µM, first compound 0.01 µM",89.9%
same,"viability, T/C","second compound 0.0316 µM, first compound 0.0316 µM",69.7%
same,"viability, T/C","second compound 0.0316 µM, first compound 0.1 µM",17.5%
same,"viability, T/C","second compound 0.1 µM, first compound 0.000316 µM",95.8%
same,"viability, T/C","second compound 0.1 µM, first compound 0.001 µM",94.2%
same,"viability, T/C","second compound 0.1 µM, first compound 0.00316 µM",92.5%
same,"viability, T/C","second compound 0.1 µM, first compound 0.01 µM",82.4%
same,"viability, T/C","second compound 0.1 µM, first compound 0.0316 µM",48.8%
same,"viability, T/C","second compound 0.1 µM, first compound 0.1 µM",8.12%
same,"viability, T/C","second compound 0.316 µM, first compound 0.000316 µM",81.7%
same,"viability, T/C","second compound 0.316 µM, first compound 0.001 µM",80.3%
same,"viability, T/C","second compound 0.316 µM, first compound 0.00316 µM",63.5%
same,"viability, T/C","second compound 0.316 µM, first compound 0.01 µM",49.7%
same,"viability, T/C","second compound 0.316 µM, first compound 0.0316 µM",22.6%
same,"viability, T/C","second compound 0.316 µM, first compound 0.1 µM",6.29%
same,"viability, T/C","second compound 1 µM, first compound 0.000316 µM",46.9%
same,"viability, T/C","second compound 1 µM, first compound 0.001 µM",39.3%
same,"viability, T/C","second compound 1 µM, first compound 0.00316 µM",37.6%
same,"viability, T/C","second compound 1 µM, first compound 0.01 µM",24.3%
same,"viability, T/C","second compound 1 µM, first compound 0.0316 µM",8.53%
same,"viability, T/C","second compound 1 µM, first compound 0.1 µM",3.88%
CC1(C)CCC(CN2CCN(c3ccc(C(=O)NS(=O)(=O)c4ccc(NCC5CCOCC5)c([N+](=O)[O-])c4)c(Oc4cnc5[nH]ccc5c4)c3)CC2)=C(c2ccc(Cl)cc2)C1,"viability, T/C",compound 0.0316 µM,98% [middle of 4 runs]
same,"viability, T/C",compound 0.1 µM,105% [middle of 4 runs]
same,"viability, T/C",compound 0.316 µM,100% [middle of 4 runs]
same,"viability, T/C",compound 1 µM,97.9% [middle of 4 runs]
